For data set [1], the system named is Cas9 with gRNA targeting CCR5 in HEK293 cells. Put plainly: High Throughput Genome-wide Translocation Sequencing (HTGTS) off-target analysis. In kind it is cell-based, human. An excerpt:
However the impact of DNA repair pathway choice manipulation on genomic integrity is largely unaddressed. To address the impact of ectopic expression of RAD52 and dn53BP1 genomic integrity and CRISPR/Cas9-associated off-target effects the state of the art “High Throughput Genome-wide Translocation Sequencing” (HTGTS)^20—an unbiased approach to monitor off-target (OT) cutting—was utilized. […] As CRISPR/Cas9 may have unintended cutting activity at totally unrelated sequences that can not be predicted by an algorithm, the off-target activity of each guide by HTGTS was examined (data not shown). Though majority of the OTs identified by HGTS overlapped with those identified previously, it was possible to detect novel OTs (data not shown). To study the impact of RAD52 and dn53BP1 on OTs and genomic integrity one guide with no OTs (CCR5D) and other guide that has 7 OTs identified by HTGTS (CCR5Q) were further examined.
HTGTS and Off-Target Analysis. Off-target analysis was carried out by HTGTS as described earlier^20. Briefly, HEK293 cells were co-transfected with expression plasmids encoding Cas9:RAG1B (20 μg), guide RNA targeting CCR5 (10 μg), RAD52 and dn53BP1 (5 μg each) and GFA (5 μg) using Calcium Phosphate. Cells were lysed 48 hours post-transfection and DNA was isolated by ethanol precipitation. 50 μg of DNA was processed for HTGTS as described^20.
However, the impact that such manipulations may have on genomic integrity has not been addressed. To address the impact of ectopic expression of RAD52 and dn53BP1 on genomic integrity and CRISPR/Cas9 specificity High Throughput Genome-wide Translocation Sequencing (HTGTS) was utilized (Frock et al., 2014)—an unbiased approach to monitor the specificity and off-target (OT) activity of Cas9 and other engineered nucleases as well as other types of DSBs.
HTGTS was conducted to analyse off-target effects for gRNA targeting CCR5 (FIG. 8A).

In data set [2] the test system is primary human CD34+ hematopoietic stem and progenitor cells. The note with it: Mandal et al. 2014; cited from earlier work.

Like-named read-outs stand apart in the source and are kept apart here.

Consider “gCCR5D: guide RNA targeting CCR5, spacer TCACTATGCTGCCGCCCAGT (guide TCACTATGCTGCCGCCCAGTGGG; listed as DNA, chemistry not given here; the letters are possibly those of the target site; listed as Homo sapiens)”, for which the “number of off-target sites (OTs) identified by HTGTS” value was “no OT” in data set [1] and “no OTs” in data set [1] (listed as CCR5D). Further, the “off-target activity in CD34+ HSPC” value in data set [2] is recorded as “did not exhibit OT activity”.

Consider “gCCR5Q: guide RNA targeting CCR5, spacer GCTGTGTTTGCGTCTCTCCC (guide GCTGTGTTTGCGTCTCTCCCAGG; listed as DNA, chemistry not given here; the letters are possibly those of the target site; listed as Homo sapiens)”, for which the “number of off-target sites (OTs) identified by HTGTS” value in data set [1] is reported as 7. For the same substance, in data set [2], the “off-target activity in CD34+ HSPC” value is recorded as “did not exhibit OT activity”.

The values above are taken from US20200149038A1, “METHODS AND COMPOSITIONS RELATING TO HOMOLOGY-DIRECTED REPAIR” (CHILDREN'S MEDICAL CENTER CORPORATION, priority 2016, published 2020).
